Source: the NIST ThermoML archive (doi:10.1021/je100100n)

Test: xn = mol fraction of the nth substance listed
Details: 101 kPa, Liquid

CC(C)CO [2-methyl-1-propanol] + CCOC(=O)CC(=O)OCC
x2 = 0
Details	mass density [kg/m3]
288.15 K	805.6
298.15 K	797.916
313.15 K	786.069
328.15 K	773.692

CCCCO [butan-1-ol] + CCOC(=O)CC(=O)OCC
x2 = 0
Details	mass density [kg/m3]
288.15 K	813.77
298.15 K	806.137
313.15 K	794.488
328.15 K	782.477

CCOC(=O)CC(=O)OCC [diethyl 1,3-propanedioate] + CC(C)CO
mass density [kg/m3]
Details	288.15 K	298.15 K	313.15 K	328.15 K
x1 = 0.1	843.381	835.034	822.221	808.976
x1 = 0.2	877.394	868.517	854.953	841.015
x1 = 0.3	908.051	898.746	884.583	870.102
x1 = 0.35	922.305	912.816	898.402	885.344
x1 = 0.3999	935.772	926.126	911.47	896.55
x1 = 0.4495	948.602	938.806	923.966	908.867
x1 = 0.5001	961.044	951.116	936.085	920.835
x1 = 0.6001	984.156	973.999	958.66	943.14
x1 = 0.6999	1005.33	995.001	979.414	963.679
x1 = 0.8003	1025.06	1014.57	998.792	982.885
x1 = 0.9	1043.28	1032.67	1016.71	1000.67
x1 = 1	1060.33	1049.6	1033.5	1017.34

CCOC(=O)CC(=O)OCC [diethyl 1,3-propanedioate] + CC(C)O
mass density [kg/m3]
Details	288.15 K	298.15 K	313.15 K	328.15 K
x1 = 0.1001	836.917	827.809	813.707	798.938
x1 = 0.2	877.015	867.404	852.617	837.294
x1 = 0.3	911.283	901.308	886.063	870.365
x1 = 0.3501	926.715	916.6	901.155	885.344
x1 = 0.4	940.924	930.696	915.119	899.194
x1 = 0.455	955.561	945.23	929.523	913.507
x1 = 0.4999	966.784	956.373	940.573	924.508
x1 = 0.5501	978.638	968.162	952.282	936.171
x1 = 0.5999	989.637	979.111	963.18	947.033
x1 = 0.6499	1000.13	989.567	973.566	957.417
x1 = 0.7001	1010.03	999.417	983.39	967.228
x1 = 0.8	1028.36	1017.69	1001.63	985.453
x1 = 0.8995	1044.94	1034.26	1018.18	1002.01
x1 = 1	1060.33	1049.6	1033.5	1017.34

CCOC(=O)CC(=O)OCC [diethyl 1,3-propanedioate] + CCCCCO
mass density [kg/m3]
Details	288.15 K	298.15 K	313.15 K	328.15 K
x1 = 0.0999	849.562	841.661	829.624	817.296
x1 = 0.1998	878.757	870.343	857.553	844.519
x1 = 0.2999	906.036	897.187	883.774	870.127
x1 = 0.3498	919.092	910.054	896.347	882.426
x1 = 0.3997	931.801	922.576	908.607	894.428
x1 = 0.4499	944.204	934.797	920.565	906.141
x1 = 0.4999	956.145	946.568	932.101	917.475
x1 = 0.5501	967.903	958.185	943.506	928.648
x1 = 0.599	978.962	969.118	954.233	939.199
x1 = 0.65	990.137	980.151	965.074	949.864
x1 = 0.6997	1000.81	990.684	975.442	960.07
x1 = 0.7997	1021.52	1011.18	995.601	979.945
x1 = 0.9	1041.37	1030.84	1015	999.065
x1 = 1	1060.33	1049.6	1033.5	1017.34

CCOC(=O)CC(=O)OCC [diethyl 1,3-propanedioate] + CCCCO
mass density [kg/m3]
Details	288.15 K	298.15 K	313.15 K	328.15 K
x1 = 0.1001	850.611	842.336	829.747	816.824
x1 = 0.2002	883.667	874.886	861.524	847.882
x1 = 0.3001	913.38	904.169	890.202	875.956
x1 = 0.35	927.207	917.818	903.569	889.092
x1 = 0.4	940.225	930.667	916.189	901.465
x1 = 0.45	952.775	943.06	928.349	913.434
x1 = 0.5	964.641	954.786	939.89	924.793
x1 = 0.5501	976.114	966.141	951.051	935.788
x1 = 0.5999	986.952	976.853	961.602	946.182
x1 = 0.7	1007.44	997.139	981.612	965.954
x1 = 0.7998	1026.31	1015.86	1000.1	984.244
x1 = 0.9001	1043.95	1033.35	1017.41	1001.38
x1 = 1	1060.33	1049.6	1033.5	1017.34
